Patent publication US20250059172A1, “INDAZOLE COMPOUND AND PHARMACEUTICAL” (NIPPON SHINYAKU CO., LTD., priority 2021, published 2025)

What was measured:
[1] = molecular target: human mPGES-1 (Homo sapiens (Human), UniProt O14684); experiment: mPGES-1 inhibitory activity test; assay type: biochemical; conditions: for IC50: microsomes of CHO-K1 cells expressing human mPGES-1, PGH2 1 μM, PGE2 by HTRF, read-out: mPGES-1 inhibition (IC50 nM); for inhibition at 0.01 µM: 10 nM test compound
Outline: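 PGE2 formation was quantified by HTRF and reported as percent inhibition at 10 and 100 nM compound or as IC50. The 60-second reaction at 4° C used 1 μM PGH2, after a 20-minute 4° C preincubation of compound (1% DMSO final) with glutathione-supplemented (2.5 mM, pH 7.4) microsomes. The microsomes were from transiently transfected CHO-K1 cells expressing human mPGES-1.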

[2] = system: human A549 cells; experiment: Inhibition test of PGE2 production using human A549 cells; assay type: cell-based; conditions: IL-1β stimulated A549 cells, 24 h, PGE2 by HTRF, read-out: A549 cell inhibition of PGE2 production IC50
Outline: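 A549 cells were preincubated 60 min with compound in RPMI/3% FBS (0.1% DMSO final), then stimulated with IL-1β (5 ng/well) for 24 h at 37°C. PGE2 was measured by HTRF and PGF2a by EIA; activity was normalized to stimulated minus unstimulated controls, and IC50 derived.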

human mPGES-1, sequence (O14684 whole entry): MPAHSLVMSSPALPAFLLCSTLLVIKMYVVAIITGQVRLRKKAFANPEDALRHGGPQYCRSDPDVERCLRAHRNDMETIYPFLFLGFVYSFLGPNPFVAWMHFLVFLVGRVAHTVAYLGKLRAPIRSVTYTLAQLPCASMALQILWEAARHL

Structure (SMILES): CC(=O)N1CCC(n2ncc3c(NC(=O)c4cc(CNC(=O)C(C)(C)C)ccc4Cl)cccc32)CC1 [Example 106, N-[1-(1-acetylpiperidin-4-yl)-1H-indazol-4-yl]-2-chloro-5-{[(2,2-dimethylpropanoyl)amino]methyl}benzamide]
- IC50 [1]: 175 nM
- IC50 [2]: 884 nM

Structure (SMILES): COc1ccc(-n2ncc3c(NC(=O)c4cc(CNC(=O)C(C)(C)C)ccc4Cl)cccc32)cc1 [Example 48, 2-Chloro-5-{[(2,2-dimethylpropanoyl)amino]methyl}-N-[1-(4-methoxyphenyl)-1H-indazol-4-yl]benzamide]
- IC50 [1]: 3.3 nM
- IC50 [2]: 4 nM

Structure (SMILES): CC(C)(C)C(=O)NCc1ccc(Cl)c(C(=O)Nc2cccc3c2cnn3Cc2ccc(C(F)(F)F)cc2)c1 [Example 92]
- IC50 [1]: 5.4 nM
- IC50 [2]: 4.2 nM

Structure (SMILES): O=C(Nc1cccc2c1cnn2-c1cccc(C(F)(F)F)c1)c1cc(CNS(=O)(=O)C2CC2)ccc1Cl [Example 224, 2-Chloro-5-{[(cyclopropylsulfonyl)amino]methyl}-N-{1-[3-(trifluoromethyl)phenyl]-1H-indazol-4-yl}benzamide]
- inhibition at 0.01 µM [1]: 83%
- IC50 [2]: < 1 nM

Structure (SMILES): Cc1ccc(-n2ncc3c(NC(=O)c4cc(CNC(=O)C(C)(C)C)ccc4Cl)cccc32)cc1Cl [Example 53, 2-Chloro-N-[1-(3-chloro-4-methylphenyl)-1H-indazol-4-yl]-5-([(2,2-dimethylpropanoyl)amino]methyl)benzamide]
- IC50 [1]: 2.6 nM
- IC50 [2]: 1.8 nM

Structure (SMILES): CC(C)(C)C(=O)NCc1ccc(Cl)c(C(=O)Nc2cccc3c2cnn3-c2cncc(C(F)(F)F)c2)c1 [Example 57, 2-Chloro-5-{[(2,2-dimethylpropanoyl)amino]methyl}-N-{1-[5-(trifluoromethyl)pyridin-3-yl]-1H-indazol-4-yl}benzamide]
- IC50 [1]: 19.8 nM
- IC50 [2]: 5.7 nM

Structure (SMILES): Cn1ncc2c(NC(=O)c3cc(CNC(=O)C4CCCC4)ccc3Cl)cccc21 [Example 204, 2-Chloro-5-{[(cyclopentylcarbonyl)amino]methyl}-N-(1-methyl-1H-indazol-4-yl)benzamide]
- inhibition at 0.01 µM [1]: 57%
- inhibition at 0.1 µM ([1]; 100 nM test compound): 85%
- IC50 [2]: 43.6 nM

Structure (SMILES): COc1ccc(-n2ncc3c(NC(=O)c4cc(CNC(=O)C(C)(C)C)ccc4Cl)cccc32)cn1 [Example 63, 2-Chloro-5-{[(2,2-dimethylpropanoyl)amino]methyl}-N-[1-(6-methoxypyridin-3-yl)-1H-indazol-4-yl]benzamide]
- IC50 [1]: 1 nM
- IC50 [2]: 13.7 nM

Structure (SMILES): COc1ccc(-n2ncc3c(NC(=O)c4cc(CNC(=O)C(C)(C)C)ccc4Cl)cccc32)cc1OC [Example 67, 2-Chloro-N-[1-(3,4-dimethoxyphenyl)-1H-indazol-4-yl]-5-{[(2,2-dimethylpropanoyl)amino]methyl}benzamide]
- IC50 [1]: 3.7 nM
- IC50 [2]: 5.1 nM

Structure (SMILES): CCn1ncc2c(NC(=O)c3cc(CNC(=O)C4CCCC4)ccc3Cl)cccc21 [Example 211, 2-Chloro-5-{[(cyclopentylcarbonyl)amino]methyl}-N-(1-ethyl-1H-indazol-4-yl)benzamide]
- inhibition at 0.01 µM [1]: 84%
- IC50 [2]: 65.8 nM

Structure (SMILES): Cc1cc(-n2ncc3c(NC(=O)c4cc(CNC(=O)C(C)(C)C)ccc4Cl)cccc32)ccc1OC(F)(F)F [Example 82, 2-Chloro-5-{[(2,2-dimethylpropanoyl)amino]methyl}-N-{1-[3-methyl-4-(trifluoromethoxy)phenyl]-1H-indazol-4-yl}benzamide]
- IC50 [1]: 10 nM
- IC50 [2]: 0.3 nM

Structure (SMILES): O=C(Nc1cccc2c1cnn2-c1ccc(C(F)(F)F)cc1)c1cc(CNC(=O)C23CC4CC(CC(C4)C2)C3)ccc1Cl [Example 32, N-[4-chloro-3-({1-[4-(trifluoromethyl)phenyl]-1H-indazol-4-yl}carbamoyl)benzyl]tricyclo[3.3.1.1^3,]decane-1-carboxamide]
- IC50 [1]: 23 nM
- IC50 [2]: 12.1 nM
